According to ChEMBL document CHEMBL1201862, “PubChem BioAssay data set” (2004):
Activity calls are given as the source filed them.

How the values were obtained:
cells = assay type: functional
[1] = target: T1, Sphingosine 1-phosphate receptor 4 (Homo sapiens, UniProt O95977); test: Late stage fluorescence dose response cell-based screening assay for antagonists of the Sphingosine 1-Phosphate Receptor 4 (S1P4). [Related pubchem assays: 1524 (Confirmation screen (S1P4 antagonists).), 1510 (Primary screen (S1P4 antagonists).), 1853 (Summary AID (S1P4 antagonists).), 1692 (Dose response screen (S1P4 antagonists).)]; assay type: functional
T1 sequence (O95977 whole entry): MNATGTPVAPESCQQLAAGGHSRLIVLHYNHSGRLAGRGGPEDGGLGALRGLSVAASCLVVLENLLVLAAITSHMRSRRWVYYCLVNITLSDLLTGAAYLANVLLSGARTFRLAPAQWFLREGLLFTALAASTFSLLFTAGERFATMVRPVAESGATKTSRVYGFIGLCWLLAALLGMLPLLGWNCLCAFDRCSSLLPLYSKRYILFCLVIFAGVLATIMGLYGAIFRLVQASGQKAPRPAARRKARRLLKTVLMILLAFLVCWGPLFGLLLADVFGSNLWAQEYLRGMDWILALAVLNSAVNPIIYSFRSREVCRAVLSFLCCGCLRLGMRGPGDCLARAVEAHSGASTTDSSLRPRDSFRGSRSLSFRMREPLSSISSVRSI

[2] = target: T2, Microphthalmia-associated transcription factor (Homo sapiens, UniProt O75030); test: reducers of TRPM1 reporter luminescence, concentration series – cell-based, SK-MEL-5, cherry-picked, set 3, MITF inhibitor project, dose response (AID 493073); assay type: functional;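 also: SK-MEL-5 melanoma cells with luciferase driven by the MITF target TRPM1 promoter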
T2 sequence (O75030 whole entry): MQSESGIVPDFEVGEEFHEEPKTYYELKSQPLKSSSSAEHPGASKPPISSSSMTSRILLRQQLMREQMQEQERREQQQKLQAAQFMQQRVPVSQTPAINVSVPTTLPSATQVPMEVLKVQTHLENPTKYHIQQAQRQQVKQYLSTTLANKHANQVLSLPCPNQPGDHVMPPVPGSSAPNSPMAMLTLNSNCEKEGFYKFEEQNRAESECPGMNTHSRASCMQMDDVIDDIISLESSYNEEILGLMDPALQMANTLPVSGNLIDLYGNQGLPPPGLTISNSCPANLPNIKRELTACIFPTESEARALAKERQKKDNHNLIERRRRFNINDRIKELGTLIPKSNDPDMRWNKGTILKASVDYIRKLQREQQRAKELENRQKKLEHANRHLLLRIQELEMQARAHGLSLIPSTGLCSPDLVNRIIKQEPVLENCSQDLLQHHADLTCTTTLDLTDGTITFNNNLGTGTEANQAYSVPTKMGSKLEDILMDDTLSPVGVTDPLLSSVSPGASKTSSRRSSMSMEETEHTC

[3] = luciferase reporter signal suppression in cells – H4 neuroglioma cells, luminescence, dose response (AID 1990); assay type: functional, cell-based
[4] = general cell-killing toxicity readout – plate reader, dry powder samples, cytotoxicity control for PAX8 inhibitor project, dose response (AID 743021); assay type: functional, cell-based
[5] = blockers of HIV-1 envelope-mediated cell-cell fusion – cherry-pick, dose response (AID 652057); assay type: functional, cell-based
[6] = target: ALK tyrosine kinase receptor (Homo sapiens, UniProt Q9UM73); assay type: functional;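 also: ALK tested as one member of a kinase panel screen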
[7] = target: Calcium/calmodulin-dependent protein kinase type II subunit gamma (Homo sapiens, UniProt Q13555); assay type: functional
[8] = target: Megakaryocyte-associated tyrosine-protein kinase (Homo sapiens, UniProt P42679); assay type: functional;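 also: affinity measured as one member of a kinase panel (Navigating the Kinome) against MATK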
[9] = target: Serine/threonine-protein kinase PAK 4 (Homo sapiens, UniProt O96013); assay type: functional;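 also: value obtained within a kinome profiling panel in which PAK4 was one of the panel members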
[10] = target: Cyclin-dependent kinase 5 (Homo sapiens, UniProt Q00535); assay type: functional;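 also: CDK5 measured as one member of a kinase profiling panel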
[11] = target: Tyrosine-protein kinase Srms (Homo sapiens, UniProt Q9H3Y6); assay type: functional;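 also: SRMS measured as one member of a kinome-wide kinase profiling panel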
[12] = target: Rho-associated protein kinase 1 (Homo sapiens, UniProt Q13464); assay type: functional;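 also: measured within a broad kinome-wide panel profiling many kinases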
[13] = target: Testis-specific serine/threonine-protein kinase 2 (Homo sapiens, UniProt Q96PF2); assay type: functional;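 also: part of the Navigating the Kinome panel, target entry STK22B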
[14] = target: Receptor tyrosine-protein kinase erbB-4 (Homo sapiens, UniProt Q15303); assay type: functional;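 also: ERBB4 member of a kinome-wide kinase profiling panel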
[15] = target: Mitogen-activated protein kinase 9 (Homo sapiens, UniProt P45984); assay type: functional;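 also: value from a kinome panel profiling assay, MAPK9 panel entry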
[16] = target: Vascular endothelial growth factor receptor 1 (Homo sapiens, UniProt P17948); assay type: functional;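 also: measured within a kinome-wide profiling panel, FLT1 as the panel member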
[17] = target: Tyrosine-protein kinase JAK3 (Homo sapiens, UniProt P52333); assay type: functional
[18] = target: MAP kinase-activated protein kinase 3 (Homo sapiens, UniProt Q16644); assay type: functional;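 also: value comes from a kinome-wide profiling panel in which MAPKAPK3 is one of the panel members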
[19] = target: Lymphokine-activated killer T-cell-originated protein kinase (Homo sapiens, UniProt Q96KB5); assay type: functional;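 also: value comes from a kinase panel screen in which TOPK was one of the panel members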
[20] = target: Mitogen-activated protein kinase kinase kinase 20 (Homo sapiens, UniProt Q9NYL2); assay type: functional
[21] = target: Homeodomain-interacting protein kinase 2 (Homo sapiens, UniProt Q9H2X6); assay type: functional;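 also: measured within a kinome-wide kinase profiling panel, HIPK2 being one panel member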
[22] = target: Tyrosine-protein kinase FRK (Homo sapiens, UniProt P42685); assay type: functional;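 also: FRK tested as one member of a kinome panel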
[23] = target: Tyrosine-protein kinase ITK/TSK (Homo sapiens, UniProt Q08881); assay type: functional;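 also: affinity for ITK measured as one member of a broad kinase panel profiling binding across the kinome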
[24] = target: Calcium/calmodulin-dependent protein kinase type II subunit alpha (Homo sapiens, UniProt Q9UQM7); test: Navigating the Kinome. Panel member name: CAMK2A; assay type: functional

Sequence of Mitogen-activated protein kinase kinase kinase 20 (Q9NYL2 whole entry): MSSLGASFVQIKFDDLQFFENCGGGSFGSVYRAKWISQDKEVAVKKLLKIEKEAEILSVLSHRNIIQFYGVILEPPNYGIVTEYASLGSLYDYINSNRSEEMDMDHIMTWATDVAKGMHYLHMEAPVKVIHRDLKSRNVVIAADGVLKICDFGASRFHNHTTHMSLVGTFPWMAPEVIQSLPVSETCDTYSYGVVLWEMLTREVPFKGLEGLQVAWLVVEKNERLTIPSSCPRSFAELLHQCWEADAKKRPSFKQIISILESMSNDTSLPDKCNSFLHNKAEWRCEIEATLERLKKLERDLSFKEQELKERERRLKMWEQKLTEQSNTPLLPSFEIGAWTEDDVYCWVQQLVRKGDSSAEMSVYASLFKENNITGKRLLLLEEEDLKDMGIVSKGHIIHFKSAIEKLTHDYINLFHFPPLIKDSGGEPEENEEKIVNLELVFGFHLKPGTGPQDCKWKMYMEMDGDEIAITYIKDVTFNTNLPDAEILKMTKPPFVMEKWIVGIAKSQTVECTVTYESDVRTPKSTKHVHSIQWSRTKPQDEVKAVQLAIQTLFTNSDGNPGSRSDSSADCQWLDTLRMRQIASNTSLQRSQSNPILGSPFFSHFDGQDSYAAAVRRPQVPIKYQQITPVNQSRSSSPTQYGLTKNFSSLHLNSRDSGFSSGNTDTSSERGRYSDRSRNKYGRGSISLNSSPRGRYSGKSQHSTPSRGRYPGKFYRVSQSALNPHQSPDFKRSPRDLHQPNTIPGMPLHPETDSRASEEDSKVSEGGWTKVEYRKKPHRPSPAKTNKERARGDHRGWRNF
Sequence of Calcium/calmodulin-dependent protein kinase type II subunit gamma (Q13555 whole entry): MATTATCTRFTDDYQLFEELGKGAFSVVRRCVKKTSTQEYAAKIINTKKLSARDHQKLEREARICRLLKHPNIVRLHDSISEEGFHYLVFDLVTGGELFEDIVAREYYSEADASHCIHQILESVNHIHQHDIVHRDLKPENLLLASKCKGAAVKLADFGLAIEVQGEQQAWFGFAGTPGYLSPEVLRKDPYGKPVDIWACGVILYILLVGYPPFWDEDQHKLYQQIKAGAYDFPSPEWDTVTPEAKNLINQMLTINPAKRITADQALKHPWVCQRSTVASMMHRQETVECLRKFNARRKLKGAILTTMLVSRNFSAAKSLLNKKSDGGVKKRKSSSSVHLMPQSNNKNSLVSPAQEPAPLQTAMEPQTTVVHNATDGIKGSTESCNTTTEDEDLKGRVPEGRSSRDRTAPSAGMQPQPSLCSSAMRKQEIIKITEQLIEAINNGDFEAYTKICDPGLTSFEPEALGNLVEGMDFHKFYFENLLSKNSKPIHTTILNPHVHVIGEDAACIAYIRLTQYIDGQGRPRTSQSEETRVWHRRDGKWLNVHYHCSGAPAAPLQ
Sequence of Cyclin-dependent kinase 5 (Q00535 whole entry): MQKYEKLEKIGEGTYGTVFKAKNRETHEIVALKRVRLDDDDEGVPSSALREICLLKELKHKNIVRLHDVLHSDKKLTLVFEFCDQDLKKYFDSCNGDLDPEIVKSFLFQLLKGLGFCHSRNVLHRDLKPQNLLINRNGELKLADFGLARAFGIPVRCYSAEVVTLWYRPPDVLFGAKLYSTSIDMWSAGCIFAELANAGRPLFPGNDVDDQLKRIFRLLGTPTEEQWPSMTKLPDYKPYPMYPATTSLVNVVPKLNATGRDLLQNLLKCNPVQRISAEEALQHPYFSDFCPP
Sequence of Receptor tyrosine-protein kinase erbB-4 (Q15303 whole entry): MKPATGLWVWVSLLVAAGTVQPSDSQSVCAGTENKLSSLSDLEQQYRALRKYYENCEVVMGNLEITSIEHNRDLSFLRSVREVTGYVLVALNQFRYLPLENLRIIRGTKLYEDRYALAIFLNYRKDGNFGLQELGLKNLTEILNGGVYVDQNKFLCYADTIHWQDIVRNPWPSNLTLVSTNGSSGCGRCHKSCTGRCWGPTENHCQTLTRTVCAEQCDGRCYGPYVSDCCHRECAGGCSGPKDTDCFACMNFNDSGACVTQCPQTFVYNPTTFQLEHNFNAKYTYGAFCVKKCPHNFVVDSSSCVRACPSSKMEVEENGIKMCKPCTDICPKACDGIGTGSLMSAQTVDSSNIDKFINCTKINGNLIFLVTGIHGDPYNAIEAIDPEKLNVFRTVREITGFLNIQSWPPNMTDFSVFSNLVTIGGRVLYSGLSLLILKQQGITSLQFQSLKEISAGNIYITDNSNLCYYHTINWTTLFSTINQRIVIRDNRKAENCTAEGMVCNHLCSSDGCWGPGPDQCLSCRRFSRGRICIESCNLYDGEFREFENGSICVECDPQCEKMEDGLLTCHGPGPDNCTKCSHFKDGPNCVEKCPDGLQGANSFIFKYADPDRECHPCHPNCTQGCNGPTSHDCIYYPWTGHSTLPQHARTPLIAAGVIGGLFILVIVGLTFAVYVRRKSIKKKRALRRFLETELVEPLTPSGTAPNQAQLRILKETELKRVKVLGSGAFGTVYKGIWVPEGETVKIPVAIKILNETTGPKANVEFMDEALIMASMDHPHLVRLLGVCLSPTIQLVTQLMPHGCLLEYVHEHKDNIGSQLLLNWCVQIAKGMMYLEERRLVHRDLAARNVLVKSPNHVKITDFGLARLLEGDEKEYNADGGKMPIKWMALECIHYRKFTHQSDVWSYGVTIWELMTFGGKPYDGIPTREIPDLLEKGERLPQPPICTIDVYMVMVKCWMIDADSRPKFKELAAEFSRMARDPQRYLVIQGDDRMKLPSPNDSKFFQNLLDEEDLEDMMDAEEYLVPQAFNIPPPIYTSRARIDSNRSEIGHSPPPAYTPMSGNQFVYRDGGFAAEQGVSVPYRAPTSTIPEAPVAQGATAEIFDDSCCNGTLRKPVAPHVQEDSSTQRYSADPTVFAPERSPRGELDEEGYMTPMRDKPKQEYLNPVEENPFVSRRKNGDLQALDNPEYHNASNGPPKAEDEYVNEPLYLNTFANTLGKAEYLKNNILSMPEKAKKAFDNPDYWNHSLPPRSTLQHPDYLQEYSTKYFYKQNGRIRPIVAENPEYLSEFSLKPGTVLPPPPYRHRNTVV
Sequence of Testis-specific serine/threonine-protein kinase 2 (Q96PF2 whole entry): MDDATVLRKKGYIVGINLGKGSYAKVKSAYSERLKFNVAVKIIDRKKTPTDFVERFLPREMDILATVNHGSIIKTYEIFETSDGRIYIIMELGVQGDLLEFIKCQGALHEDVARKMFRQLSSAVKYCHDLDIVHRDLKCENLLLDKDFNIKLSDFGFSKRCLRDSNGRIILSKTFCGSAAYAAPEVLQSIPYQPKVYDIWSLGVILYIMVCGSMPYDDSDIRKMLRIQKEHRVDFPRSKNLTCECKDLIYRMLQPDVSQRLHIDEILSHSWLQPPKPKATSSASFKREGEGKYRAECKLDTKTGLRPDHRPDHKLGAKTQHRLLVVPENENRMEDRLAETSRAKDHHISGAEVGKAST
Sequence of Rho-associated protein kinase 1 (Q13464 whole entry): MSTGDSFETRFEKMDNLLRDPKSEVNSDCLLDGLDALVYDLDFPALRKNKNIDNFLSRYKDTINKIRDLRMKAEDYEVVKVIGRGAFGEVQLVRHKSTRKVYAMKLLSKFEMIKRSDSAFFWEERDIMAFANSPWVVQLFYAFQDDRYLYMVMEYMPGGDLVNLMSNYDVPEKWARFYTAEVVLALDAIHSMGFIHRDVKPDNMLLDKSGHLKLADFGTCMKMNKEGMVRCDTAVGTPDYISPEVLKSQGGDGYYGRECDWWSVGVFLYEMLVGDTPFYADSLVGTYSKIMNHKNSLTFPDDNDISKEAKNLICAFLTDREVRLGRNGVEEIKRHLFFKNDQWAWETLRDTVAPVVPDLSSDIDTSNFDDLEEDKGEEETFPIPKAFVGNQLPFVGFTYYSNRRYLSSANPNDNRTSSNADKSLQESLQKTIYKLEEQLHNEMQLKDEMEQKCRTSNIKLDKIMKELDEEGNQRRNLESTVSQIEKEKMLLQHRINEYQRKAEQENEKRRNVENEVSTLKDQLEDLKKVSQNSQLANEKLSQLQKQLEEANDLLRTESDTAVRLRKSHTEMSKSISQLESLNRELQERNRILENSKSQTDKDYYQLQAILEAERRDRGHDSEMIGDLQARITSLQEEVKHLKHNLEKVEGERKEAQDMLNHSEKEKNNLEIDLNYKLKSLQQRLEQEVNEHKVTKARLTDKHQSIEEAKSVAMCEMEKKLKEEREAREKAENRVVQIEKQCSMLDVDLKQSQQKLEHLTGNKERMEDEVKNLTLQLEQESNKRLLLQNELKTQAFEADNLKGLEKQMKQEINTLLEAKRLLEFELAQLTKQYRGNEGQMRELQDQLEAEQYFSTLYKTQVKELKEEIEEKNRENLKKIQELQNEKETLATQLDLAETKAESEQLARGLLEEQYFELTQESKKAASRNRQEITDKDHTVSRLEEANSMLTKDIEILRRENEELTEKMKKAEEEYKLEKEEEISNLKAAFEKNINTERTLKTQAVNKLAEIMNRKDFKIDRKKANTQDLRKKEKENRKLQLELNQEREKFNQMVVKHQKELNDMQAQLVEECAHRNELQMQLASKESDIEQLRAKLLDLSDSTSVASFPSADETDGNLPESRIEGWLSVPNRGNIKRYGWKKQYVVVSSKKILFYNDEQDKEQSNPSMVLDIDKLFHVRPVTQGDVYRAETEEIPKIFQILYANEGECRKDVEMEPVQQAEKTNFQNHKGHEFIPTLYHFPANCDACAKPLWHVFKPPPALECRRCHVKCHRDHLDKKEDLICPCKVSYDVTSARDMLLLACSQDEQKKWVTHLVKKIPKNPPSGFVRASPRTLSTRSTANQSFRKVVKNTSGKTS
Sequence of MAP kinase-activated protein kinase 3 (Q16644 whole entry): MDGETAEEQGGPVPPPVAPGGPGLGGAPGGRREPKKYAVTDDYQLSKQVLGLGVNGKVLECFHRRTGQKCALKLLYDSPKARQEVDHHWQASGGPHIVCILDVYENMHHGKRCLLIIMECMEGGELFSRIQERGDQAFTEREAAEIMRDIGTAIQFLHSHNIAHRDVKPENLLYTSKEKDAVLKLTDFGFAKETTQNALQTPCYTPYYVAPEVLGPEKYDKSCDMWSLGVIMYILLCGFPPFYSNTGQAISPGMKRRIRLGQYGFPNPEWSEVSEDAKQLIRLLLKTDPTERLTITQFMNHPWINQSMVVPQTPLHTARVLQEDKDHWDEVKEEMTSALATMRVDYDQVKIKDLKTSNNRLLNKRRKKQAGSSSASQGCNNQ

SMILES: COC(=O)CCS(=O)(=O)c1nc(-c2ccccc2)cc(C(F)(F)F)n1
- IC50 (cells): 4.78 µM (active)
- IC50 [1]: 3.45 µM (not active)
- AC50 [2]: 5.85 µM (active)

SMILES: O=C(O)c1ccc2c3c(ncnc13)-c1ccccc1C2=O
- EC50 [3]: 2.48 µM (active)

SMILES: CCOC(=O)c1c2c(n(Cc3ccccc3)c1C)C(=O)C(=O)c1ccccc1-2
- AC50 [4]: 15.7 µM (active)
- AC50 [5]: 6.28 µM (active)

SMILES: Cc1ccc2nccc(NC(=O)Nc3cccc(C(F)(F)F)n3)c2c1
- Ki [6]: > 3.98 µM (inactive)
- Ki [7]: > 6.31 µM (inactive)
- Ki [8]: > 2 µM (inactive)
- Ki [9]: > 5.01 µM (inactive)
- Ki [10]: 0.316 µM (active)
- Ki [11]: > 1.58 µM (inactive)
- Ki [12]: > 6.31 µM (inactive)
- Ki [13]: > 1.58 µM (inactive)
- Ki [14]: > 3.98 µM (inactive)
- Ki [15]: > 3.98 µM (inactive)
- Ki [16]: > 2 µM (inactive)
- Ki [17]: > 3.16 µM (inactive)
- Ki [18]: > 10 µM (inactive)
- Ki [19]: 2 µM (active)
- Ki [20]: > 7.94 µM (inactive)
- Ki [21]: 0.794 µM (active)
- Ki [22]: 0.1 µM (active)
- Ki [23]: > 1.58 µM (inactive)

SMILES: Cc1nn(C)c2sc3c(=O)[nH]cnc3c12
- Ki [10]: 79.4 µM (active)

SMILES: Cc1c(/N=C2\C=CC(=O)c3ccccc32)c(=O)n(-c2ccccc2)n1C
- AC50 [2]: 5.26 µM (active)

SMILES: COc1cc2c(cc1F)C(c1ccccc1Cl)=Nc1c(n[nH]c1C)N2 [RG-1530]
- Ki [7]: > 6.31 µM (inactive)
- Ki [8]: > 2 µM (inactive)
- Ki [9]: 0.0794 µM (active)
- Ki [11]: > 1.58 µM (inactive)
- Ki [12]: > 2.51 µM (inactive)
- Ki [13]: 1 µM (active)
- Ki [14]: 2 µM (active)
- Ki [16]: 0.0501 µM (active)
- Ki [17]: 0.0794 µM (active)
- Ki [18]: > 10 µM (inactive)
- Ki [19]: > 10 µM (inactive)
- Ki [20]: > 7.94 µM (inactive)
- Ki [24]: > 6.31 µM (inactive)
- Ki [21]: > 3.16 µM (inactive)
- Ki [22]: 0.0794 µM (active)
- Ki [23]: 0.126 µM (active)
